The values that follow come from patent US12180207B2 (ARRAY BIOPHARMA INC., priority 2018, dated 2024).

Molecules are shown by their SMILES.

The target in one experiment is dephosphorylated FGFR2 (Homo sapiens (Human), UniProt P21802). As to the kind of experiment: FGFR enzyme binding assay (HTRF tracer displacement), FGFR2. As to conditions: 5 nM dephosphorylated FGFR2, average of multiple determinations if made. How it is done:
The potency of compounds inhibiting human isoforms of FGFR kinase was determined using Life Technologies' Homogeneous Time Resolved Fluorescence (HTRF)-based binding assay technology. […] After a 60 minute incubation at 22° C., the extent of tracer displacement was determined using a PerkinElmer EnVision multimode plate reader via HTRF dual wavelength detection, and the percent of control (POC) was calculated using a ratiometric emission factor. One hundred POC was determined using no test compound, and 0 POC was determined in the presence of 1 μM of an appropriate control inhibitor.

The target of experiment [1] is HEK-293 cells transfected with dox-inducible human wild type FGFR3 (Homo sapiens (Human), UniProt P22607). As to the kind of experiment: FGFR3 pFGFR cell assay (ELISA). The class given is cell-based. The note with it: HEK-293 dox-inducible FGFR3, 1 hour compound, 100 ng/ml FGF-acidic. The gist of the method:
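Doxycycline-induced (1 μg/ml) HEK-293 cells expressing wild-type human FGFR3, treated 1 h with compound (1:3 series, top final 5 μM), then stimulated 5 min with 100 ng/ml FGF-acidic. Phospho-FGFR3 measured by ELISA (total FGFR3 capture, phosphotyrosine detection, OD 450 nm); IC50 from 4-parameter fit of POC values.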
For orientation: ELISA stands for enzyme-linked immunosorbent assay.

Chain of HEK-293 cells transfected with dox-inducible human wild type FGFR3 (P22607 23-806): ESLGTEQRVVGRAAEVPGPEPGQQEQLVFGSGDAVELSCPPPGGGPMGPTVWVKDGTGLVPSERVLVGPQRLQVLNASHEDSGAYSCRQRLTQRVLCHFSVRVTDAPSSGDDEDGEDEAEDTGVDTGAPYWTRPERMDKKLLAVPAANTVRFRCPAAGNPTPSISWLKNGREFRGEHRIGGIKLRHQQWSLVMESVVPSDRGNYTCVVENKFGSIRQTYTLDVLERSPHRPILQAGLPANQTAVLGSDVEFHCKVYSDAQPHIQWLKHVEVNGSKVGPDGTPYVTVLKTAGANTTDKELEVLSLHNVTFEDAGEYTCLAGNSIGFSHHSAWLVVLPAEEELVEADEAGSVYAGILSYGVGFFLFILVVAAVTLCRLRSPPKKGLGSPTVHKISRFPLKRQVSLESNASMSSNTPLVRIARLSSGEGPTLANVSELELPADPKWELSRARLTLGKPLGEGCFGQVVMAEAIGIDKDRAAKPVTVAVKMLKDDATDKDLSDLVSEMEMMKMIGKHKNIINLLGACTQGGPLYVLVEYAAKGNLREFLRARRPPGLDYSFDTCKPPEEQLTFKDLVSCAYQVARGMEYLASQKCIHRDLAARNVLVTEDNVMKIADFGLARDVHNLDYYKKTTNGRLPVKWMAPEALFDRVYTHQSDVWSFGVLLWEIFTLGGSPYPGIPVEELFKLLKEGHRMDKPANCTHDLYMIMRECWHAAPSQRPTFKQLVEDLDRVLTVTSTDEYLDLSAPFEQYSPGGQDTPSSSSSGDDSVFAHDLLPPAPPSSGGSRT
Chain of dephosphorylated FGFR2 (P21802 22-821): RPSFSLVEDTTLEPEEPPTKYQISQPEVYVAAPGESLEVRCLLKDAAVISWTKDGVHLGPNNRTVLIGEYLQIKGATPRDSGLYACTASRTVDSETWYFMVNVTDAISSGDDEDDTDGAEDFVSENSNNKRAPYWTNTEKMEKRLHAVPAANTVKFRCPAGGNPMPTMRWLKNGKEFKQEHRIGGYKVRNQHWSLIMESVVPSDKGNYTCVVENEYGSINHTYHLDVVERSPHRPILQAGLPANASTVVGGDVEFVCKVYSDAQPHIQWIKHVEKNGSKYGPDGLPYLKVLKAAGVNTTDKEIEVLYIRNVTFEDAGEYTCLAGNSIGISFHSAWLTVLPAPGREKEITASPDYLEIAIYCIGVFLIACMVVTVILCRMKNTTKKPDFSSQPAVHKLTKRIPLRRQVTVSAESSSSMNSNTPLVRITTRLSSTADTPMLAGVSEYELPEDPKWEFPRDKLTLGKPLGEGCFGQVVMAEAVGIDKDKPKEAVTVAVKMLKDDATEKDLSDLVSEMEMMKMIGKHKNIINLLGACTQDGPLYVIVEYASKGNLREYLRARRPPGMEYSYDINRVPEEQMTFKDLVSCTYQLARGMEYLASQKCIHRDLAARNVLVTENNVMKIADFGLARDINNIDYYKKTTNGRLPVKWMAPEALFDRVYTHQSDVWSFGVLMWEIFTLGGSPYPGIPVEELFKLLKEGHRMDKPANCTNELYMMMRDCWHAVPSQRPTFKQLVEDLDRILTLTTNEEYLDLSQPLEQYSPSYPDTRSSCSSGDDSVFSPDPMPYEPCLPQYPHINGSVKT

As to `C=CC(=O)N1CC(C(=O)N2C[C@H]3C[C@@H]2CN3c2ccc(-c3cc(OC)c4c(C#N)cnn4c3)cn2)C1` [Example 107, 6-(6-((1R,4R)-5-(1-acryloylazetidine-3-carbonyl)-2,5-diazabicyclo[2.2.1]heptan-2-yl)pyridin-3-yl)-4-methoxypyrazolo[1,5-a]pyridine-3-carbonitrile], the IC50 (usually the point on the concentration scale where inhibition reaches its midpoint) at dephosphorylated FGFR2 came out at 56 nM. This lies in the double-digit nanomolar range. The same measure, in the same setting: as for `COc1cc(-c2cnn(C3CCN(C(=O)C4(OC)CN(C(=O)/C=C/CN(C)C)C4)CC3)c2C)cn2ncc(C#N)c12` [Example 158, (E)-6-(1-(1-(1-(4-(dimethylamino)but-2-enoyl)-3-methoxyazetidine-3-carbonyl)piperidin-4-yl)-5-methyl-1H-pyrazol-4-yl)-4-methoxypyrazolo [1,5-a]pyridine-3-carbonitrile], the figure is 8 nM; as for `C=CC(=O)N1CC(F)(C(=O)N2CCN(c3ccc(-c4cc(OC)c5c(C#N)cnn5c4)cn3)CC2)C1` [Example 112, 6-(6-(4-(1-acryloyl-3-fluoroazetidine-3-carbonyl)piperazin-1-yl)pyridin-3-yl)-4-methoxypyrazolo[1,5-a]pyridine-3-carbonitrile], 16 nM.

For `C=CC(=O)N1CC(O)(C(=O)N2CCC(n3ncc(-c4cc(OC)c5c(Cl)cnn5c4)c3C)CC2)C1` [Example 172, 1-(3-(4-(4-(3-chloro-4-methoxypyrazolo [1,5-a]pyridin-6-yl)-5-methyl-1H-pyrazol-1-yl)piperidine-1-carbonyl)-3-hydroxyazetidin-1-yl)prop-2-en-1-one], the half-inhibitory concentration (IC50) on dephosphorylated FGFR2 is 125 nM. This IC50 lies about 7.8-fold higher than the previous one. Same read-out and setting: then `C=CC(=O)N1CC(C(=O)N2CC3(C2)CN(c2ccc(-c4cc(OC)c5c(C#N)cnn5c4)cn2)C3)C1` [Example 104, 6-(6-(6-(1-acryloylazetidine-3-carbonyl)-2,6-diazaspiro[3.3]heptan-2-yl)pyridin-3-yl)-4-methoxypyrazolo[1,5-a]pyridine-3-carbonitrile], with 45 nM.

As for `COC/C=C/C(=O)N1CC(F)(C(=O)N2CCC(n3ncc(-c4cc(OC)c5c(C#N)cnn5c4)c3C)CC2)C1` [Example 154, (E)-6-(1-(1-(3-fluoro-1-(4-methoxybut-2-enoyl)azetidine-3-carbonyl)piperidin-4-yl)-5-methyl-1H-pyrazol-4-yl)-4-methoxypyrazolo [1,5-a]pyridine-3-carbonitrile], the IC50 at dephosphorylated FGFR2 was determined as 69 nM. The same measure, in the same setting: then `C=CC(=O)N1CC(C(=O)N2CCC3(CC2)CN(c2ccc(-c4cc(OC)c5c(C#N)cnn5c4)cn2)C3)C1` [Example 102, 6-(6-(7-(1-acryloylazetidine-3-carbonyl)-2,7-diazaspiro[3.5]nonan-2-yl)pyridin-3-yl)-4-methoxypyrazolo[1,5-a]pyridine-3-carbonitrile], with 22 nM. In turn, `C=CC(=O)N1CC(C(=O)N2CCC(n3cc(-c4cc(OC)c5c(Cl)cnn5c4)cn3)CC2)C1` [Example 122, 1-(3-(4-(4-(3-chloro-4-methoxypyrazolo[1,5-a]pyridin-6-yl)-1H-pyrazol-1-yl)piperidine-1-carbonyl)azetidin-1-yl)prop-2-en-1-one] gave an IC50 in experiment [1] of 71 nM. Same read-out and setting: then `C=CC(=O)N1CC(C)(C(=O)N2CCC(n3cc(-c4cc(OC)c5c(Cl)cnn5c4)cn3)CC2)C1` [Example 123, 1-(3-(4-(4-(3-chloro-4-methoxypyrazolo[1,5-a]pyridin-6-yl)-1H-pyrazol-1-yl)piperidine-1-carbonyl)-3-methylazetidin-1-yl)prop-2-en-1-one], with 57 nM; and `C=CC(=O)N1CC(C(=O)N2CCN(c3ccc(-c4cc(OC)c5c(C#N)cnn5c4)cc3)CC2)C1` [Example 100, 6-(4-(4-(1-acryloylazetidine-3-carbonyl)piperazin-1-yl)phenyl)-4-methoxypyrazolo[1,5-a]pyridine-3-carbonitrile], with 21 nM. Regarding `COc1cc(-c2cnn(C3CCN(C(=O)C4CN(C(=O)/C=C/CN5CCCCC5)C4)CC3)c2)cn2ncc(C#N)c12` [Example 145, (E)-4-methoxy-6-(1-(1-(1-(4-(piperidin-1-yl)but-2-enoyl)azetidine-3-carbonyl)piperidin-4-yl)-1H-pyrazol-4-yl)pyrazolo[1,5-a]pyridine-3-carbonitrile], half-maximal inhibition in experiment [1] (IC50) required 257 nM. This IC50 is about 12-fold higher than that of the compound before. As for `C#CC(=O)N1CC(C(=O)N2CCC(n3cc(-c4cc(OC)c5c(C#N)cnn5c4)cn3)CC2)C1` [Example 138, 4-methoxy-6-(1-(1-(1-propioloylazetidine-3-carbonyl)piperidin-4-yl)-1H-pyrazol-4-yl)pyrazolo[1,5-a]pyridine-3-carbonitrile], inhibition in experiment [1] was half-maximal at 17 nM (IC50). For the compound `C=CC(=O)N1CC(OC)(C(=O)N2CCC(n3cc(-c4cc(OC)c5c(Cl)cnn5c4)cn3)CC2)C1` [Example 124, 1-(3-(4-(4-(3-chloro-4-methoxypyrazolo[1,5-a]pyridin-6-yl)-1H-pyrazol-1-yl)piperidine-1-carbonyl)-3-methoxyazetidin-1-yl)prop-2-en-1-one], the IC50 in experiment [1] was 24 nM. Consider `C=CC(=O)N1CC(C(=O)N2CCC(n3cc(-c4cc(OCC(C)C)c5c(C#N)cnn5c4)cn3)CC2)C1` [Example 128, 6-(1-(1-(1-acryloylazetidine-3-carbonyl)piperidin-4-yl)-1H-pyrazol-4-yl)-4-isobutoxypyrazolo[1,5-a]pyridine-3-carbonitrile], for which, in experiment [1], the IC50 is 28 nM. The same measure, in the same setting: as for `C=CC(=O)N1CC(CN2CCC(n3cc(-c4cc(OC)c5c(C#N)cnn5c4)cn3)CC2)C1` [Example 132, 6-(1-(1-((1-acryloylazetidin-3-yl)methyl)piperidin-4-yl)-1H-pyrazol-4-yl)-4-methoxypyrazolo[1,5-a]pyridine-3-carbonitrile], the figure is 31 nM; as for `C=CC(=O)N1CC(C(=O)N2CCC(n3cc(-c4cc(OCC)c5c(C#N)cnn5c4)cn3)CC2)C1` [Example 126, 6-(1-(1-(1-acryloylazetidine-3-carbonyl)piperidin-4-yl)-1H-pyrazol-4-yl)-4-ethoxypyrazolo[1,5-a]pyridine-3-carbonitrile], 20 nM. In experiment [1], `C=CC(=O)N1CC(C(=O)N2CCC(n3cc(-c4cc(-c5ccccc5F)c5c(C#N)cnn5c4)cn3)CC2)C1` [Example 131, 6-(1-(1-(1-acryloylazetidine-3-carbonyl)piperidin-4-yl)-1H-pyrazol-4-yl)-4-(2-fluorophenyl)pyrazolo[1,5-a]pyridine-3-carbonitrile] came in with an IC50 of 15 nM. This IC50 and that of the compound before are within 1.5-fold of each other. Same read-out and setting: as for `C=CC(=O)N1CC2(CCN(C(=O)N3CCC(n4cc(-c5cc(OC)c6c(C#N)cnn6c5)cn4)CC3)C2)C1` [Example 8, 6-(1-(1-(2-acryloyl-2,6-diazaspiro[3.4]octane-6-carbonyl)piperidin-4-yl)-1H-pyrazol-4-yl)-4-methoxypyrazolo[1,5-a]pyridine-3-carbonitrile], the figure is 149 nM; as for `COc1cc(-c2cnn(C3CCN(CC4CN(C(=O)/C=C/CN5CCCCC5)C4)CC3)c2)cn2ncc(C#N)c12` [Example 175, (E)-4-methoxy-6-(1-(1-((1-(4-(piperidin-1-yl)but-2-enoyl)azetidin-3-yl)methyl)piperidin-4-yl)-1H-pyrazol-4-yl)pyrazolo[1,5-a]pyridine-3-carbonitrile], 52 nM. The same measure, in the same setting: then `C=CC(=O)N1C[C@H]2CN(C(=O)N3CCC(n4cc(-c5cc(OC)c6c(C#N)cnn6c5)cn4)CC3)C[C@H]21` [Example 7, 6-(1-(1-((1S,5S)-6-acryloyl-3,6-diazabicyclo[3.2.0]heptane-3-carbonyl)piperidin-4-yl)-1H-pyrazol-4-yl)-4-methoxypyrazolo[1,5-a]pyridine-3-carbonitrile], with 110 nM; and `C=CC(=O)N1CC(S(=O)(=O)N2CCC(n3cc(-c4cc(OC)c5c(C#N)cnn5c4)cn3)CC2)C1` [Example 134, 6-(1-(1-((1-acryloylazetidin-3-yl)sulfonyl)piperidin-4-yl)-1H-pyrazol-4-yl)-4-methoxypyrazolo[1,5-a]pyridine-3-carbonitrile], with 12 nM; and `C=CC(=O)N1CC(C(=O)N2CCC(n3cc(-c4cc(OC(C)C)c5c(C#N)cnn5c4)cn3)CC2)C1` [Example 127, 6-(1-(1-(1-acryloylazetidine-3-carbonyl)piperidin-4-yl)-1H-pyrazol-4-yl)-4-isopropoxypyrazolo[1,5-a]pyridine-3-carbonitrile], with 18 nM. On the same count and under the same terms, as for `C=CC(=O)N1CC(C(=O)N2CCC(n3cnc(-c4cc(OC)c5c(C#N)cnn5c4)c3)CC2)C1` [Example 98, 6-(1-(1-(1-acryloylazetidine-3-carbonyl)piperidin-4-yl)-1H-imidazol-4-yl)-4-methoxypyrazolo[1,5-a]pyridine-3-carbonitrile], the figure is 1130 nM; as for `C=CC(=O)Nc1ccc(CN2CCC(n3cc(-c4cc(OC)c5c(C#N)cnn5c4)cn3)CC2)cc1` [Example 9, N-(4-((4-(4-(3-cyano-4-methoxypyrazolo[1,5-a]pyridin-6-yl)-1H-pyrazol-1-yl)piperidin-1-yl)methyl)phenyl)acrylamide], 28 nM; as for `C=CC(=O)N1CC(C(=O)N2CCC(n3cc(-c4cc(C(C)C)c5c(C#N)cnn5c4)cn3)CC2)C1` [Example 129, 6-(1-(1-(1-acryloylazetidine-3-carbonyl)piperidin-4-yl)-1H-pyrazol-4-yl)-4-isopropylpyrazolo[1,5-a]pyridine-3-carbonitrile], 23 nM. As for `C=CC(=O)N1CCC(F)(C(=O)N2CCC(n3cc(-c4cc(OC)c5c(C#N)cnn5c4)cn3)CC2)CC1` [Example 13, 6-(1-(1-(1-acryloyl-4-fluoropiperidine-4-carbonyl)piperidin-4-yl)-1H-pyrazol-4-yl)-4-methoxypyrazolo[1,5-a]pyridine-3-carbonitrile], in experiment [1], half-maximal inhibition (IC50) required 39 nM.
